The values below come from US10538535B2, “Antitumoral compounds” (priority 2017, dated 2020).

SMILES strings stand for the structures. Like-named read-outs stand apart in the source and are kept apart here.

The subject of experiment [1] is PC-3 tumors. The conditions noted are these: 12-R 0.05 mg/kg. From the text:
In this model, instead of male, female animals were used because PC-3 growth is not hormone dependant.

The subject of experiment [2] is HT29 cells. Kind of experiment: cells. The conditions noted are these: Homo sapiens, HT-29, 72 h; for CC50: read-out: LC50; for IC (TGI): read-out: TGI. The procedure, abridged:
(§1)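 5000 cells/well, 18 h attachment; 72 h compound treatment (1% DMSO final, 10–0.003 μg/mL); fixation in 1% glutaraldehyde, 0.4% SRB stain; NCI algorithm, 4-parameter logistic fit.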

In experiment [3] the test system is A549 cells. Kind of experiment: cells. Particulars: Homo sapiens, A549, 72 h; for CC50: read-out: LC50; for IC (TGI): read-out: TGI. The procedure, abridged: as §1
For experiment [4], the system named is MDA-MB-231 cells. The experiment can be described thus: cells. The conditions noted are these: Homo sapiens, MDA-MB-231, 72 h; for CC50: read-out: LC50; for IC (TGI): read-out: TGI. The procedure, abridged:
as §1

For experiment [5], the system named is PSN1 cells. The experiment can be described thus: cells. The conditions noted are these: Homo sapiens, PSN1, 72 h; for CC50: read-out: LC50; for IC (TGI): read-out: TGI. The procedure, abridged: as §1
Experiment [6] has as its system H526 tumors. The experiment can be described thus: In vivo xenograft, human lung (SCLC) H526. Particulars: iv weekly, 47-R 0.1 mg/Kg, Compound D 0.5 mg/Kg. (In general: A xenograft is tissue or cells of one species grown in another, often human tumour cells in immunodeficient mice.)
For experiment [7], the system named is H82 tumors. The experiment can be described thus: In vivo xenograft, human lung (SCLC) H82. The conditions noted are these: iv weekly, 47-R 0.1 mg/Kg, Compound D 0.5 mg/Kg.

`COc1c(C)cc2c(c1O)[C@@H]1[C@@H]3[C@@H]4SC[C@]5(N[C@H](CN)Cc6c5[nH]c5ccccc65)C(=O)OC[C@@H](c5c6c(c(C)c(OC(C)=O)c54)OCO6)N3[C@@H](O)[C@H](C2)N1C` [Compound 12-S]: the “Median Tumor Volume” value in experiment [1] (Day 0, iv Days 0, 7 and 14, 12-S […]) is 128.0 mm^3; in experiment [1] (Day 2, iv Days 0, 7 and 14, 12-S […]), 141.5 mm^3; in experiment [1] (Day 4, iv Days 0, 7 and 14, 12-S […]), 143.7 mm^3; in experiment [1] (Day 7, iv Days 0, 7 and 14, 12-S […]), 183.9 mm^3; in experiment [1] (Day 11, iv Days 0, 7 and 14, 12-S […]) it was 208.1 mm^3; in experiment [1] (Day 14, iv Days 0, 7 and 14, 12-S […]) it was 270.7 mm^3. For the same compound, the “Median Tumor Volume” value in experiment [1] (Day 16, iv Days 0, 7 and 14, 12-S […]) was found to be 286.3 mm^3; in experiment [1] (Day 18, iv Days 0, 7 and 14, 12-S […]), 336.1 mm^3; in experiment [1] (Day 21, iv Days 0, 7 and 14, 12-S […]), 357.1 mm^3; in experiment [1] (Day 23, iv Days 0, 7 and 14, 12-S […]), 400.8 mm^3; in experiment [1] (Day 25, iv Days 0, 7 and 14, 12-S […]), 443.6 mm^3; in experiment [1] (Day 29, iv Days 0, 7 and 14, 12-S […]), 523.4 mm^3. Further, the “Median Tumor Volume” value in experiment [1] (Day 32, iv Days 0, 7 and 14, 12-S […]) was found to be 652.6 mm^3; in experiment [1] (Day 35, iv Days 0, 7 and 14, 12-S […]) it was 689.7 mm^3; in experiment [1] (Day 37, iv Days 0, 7 and 14, 12-S […]), 692.2 mm^3; in experiment [1] (Day 39, iv Days 0, 7 and 14, 12-S […]), 726.9 mm^3; in experiment [1] (Day 42, iv Days 0, 7 and 14, 12-S […]) it was 823.7 mm^3; in experiment [1] (Day 44, iv Days 0, 7 and 14, 12-S […]), 864.2 mm^3. The “Median Tumor Volume” value in experiment [1] (Day 46, iv Days 0, 7 and 14, 12-S […]) amounted to 1182.8 mm^3; in experiment [1] (Day 49, iv Days 0, 7 and 14, 12-S […]) it was 1219.2 mm^3; in experiment [1] (Day 51, iv Days 0, 7 and 14, 12-S […]), 1331.9 mm^3; in experiment [1] (Day 56, iv Days 0, 7 and 14, 12-S […]), 1335.2 mm^3. Further, the CC50 in experiment [2] and in experiment [3] was more than 128 nM throughout.
Consider `COc1c(C)cc2c(c1O)[C@@H]1[C@@H]3[C@@H]4SC[C@]5(NCCc6c5oc5ccccc65)C(=O)OC[C@@H](c5c6c(c(C)c(OC(C)=O)c54)OCO6)N3[C@@H](C#N)[C@H](C2)N1C` [Compound 31], for which the GI50 (as a rule, the concentration that inhibits growth by half) in experiment [4] amounted to 8.89 nM; in experiment [5], 6.8 nM; in experiment [2] it was 10.5 nM; in experiment [3] it was 19.6 nM. Also, the CC50 in experiment [4] was 35.3 nM; in experiment [5], 43.1 nM; in experiment [2] it was more than 131 nM; in experiment [3], 23.5 nM. For the same compound, the IC (TGI) in experiment [4] amounted to 17 nM; in experiment [5], 15.7 nM; in experiment [2], 15.7 nM; in experiment [3], 20.9 nM.
As to `COc1c(C)cc2c(c1O)[C@@H]1[C@@H]3[C@@H]4SC[C@]5(N[C@H](C)Cc6c5[nH]c5ccccc65)C(=O)OC[C@@H](c5c6c(c(C)c(OC(C)=O)c54)OCO6)N3[C@@H](C#N)[C@H](C2)N1C` [A], the GI50 is 7.07 nM in experiment [4], 12.9 nM in experiment [5], 7.71 nM in experiment [2] and 8.36 nM in experiment [3]. For the same compound, the CC50 in experiment [4] was 14.1 nM; in experiment [5], 19.3 nM; in experiment [2], more than 129 nM; in experiment [3], more than 129 nM. The IC (TGI) in experiment [4] stood at 9.38 nM; in experiment [5], 15.4 nM; in experiment [2] it was 8.36 nM; in experiment [3] it was 8.87 nM.
With `COc1c(C)cc2c(c1O)[C@@H]1[C@@H]3[C@@H]4SC[C@]5(N[C@@H](CN)Cc6c5oc5ccccc65)C(=O)OC[C@@H](c5c6c(c(C)c(OC(C)=O)c54)OCO6)N3[C@@H](O)[C@H](C2)N1C` [Compound 47-R], the CC50 was 2.55 nM in experiment [4], 3.31 nM in experiment [5] and more than 127 nM in experiment [2]. The “Median Tumor Volume” value in experiment [6] (Table 56, Day 0) was 211.5 mm^3; in experiment [6] (Table 56, Day 2) it was 367.9 mm^3; in experiment [6] (Table 56, Day 4) it was 583.7 mm^3; in experiment [6] (Table 56, Day 7) it was 941.7 mm^3; in experiment [6] (Table 56, Day 9), 1305.2 mm^3; in experiment [6] (Table 56, Day 11), 1484.7 mm^3. In addition, the “Median Tumor Volume” value in experiment [6] (Table 56, Day 14) worked out at 2025.0 mm^3; in experiment [7] (Table 57, Day 0) it was 169.0 mm^3; in experiment [7] (Table 57, Day 2), 371.6 mm^3; in experiment [7] (Table 57, Day 5), 888.8 mm^3; in experiment [7] (Table 57, Day 7), 1314.2 mm^3; in experiment [7] (Table 57, Day 9) it was 1811.0 mm^3. Moreover, in experiment [7] (Table 57, Day 12), the “Median Tumor Volume” value worked out at 2055.4 mm^3.
Regarding `COc1ccc2[nH]c3c(c2c1)C[C@@H](CO)N[C@]31CS[C@@H]2c3c(OC(C)=O)c(C)c4c(c3[C@H](COC1=O)N1[C@@H]2[C@H]2c3c(cc(C)c(OC)c3O)C[C@@H]([C@@H]1C#N)N2C)OCO4` [Compound 18-S], in experiment [4], the CC50 came to 1.58 nM. Further, the IC (TGI) in experiment [4] is 1.34 nM; in experiment [5], 1.34 nM; in experiment [2], 1.34 nM; in experiment [3], 3.03 nM. In addition, the GI50 in experiment [5] (PSN1, 72 hours treatment, SRB) came to 0.959 nM; in experiment [3], 1.7 nM.
